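Following 48 hours of exposure in 96-well plates, responses at five concentrations were used to interpolate endpoints linearly. GI50: concentration for 50% inhibition of growth.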 The source made the active and inactive calls. Cut-off read from the data, not from the text of the source: active = GI50 up to about 1.1 µM and inactive = higher.
Tests used:
Experiment in all cases: NCI tumour cell line growth inhibition, 48 h
[1] = test system: UACC-257
[2] = test system: RPMI-8226
[3] = test system: RXF 393
[4] = test system: Malme-3M
[5] = test system: K562
[6] = test system: PC-3
[7] = test system: SF-295
[8] = test system: COLO 205
[9] = test system: SK-OV-3
[10] = test system: SR
[11] = test system: ACHN
[12] = test system: HCT-116
[13] = test system: SK-MEL-5
[14] = test system: LOX IMVI
[15] = test system: TK-10
[16] = test system: SNB-75
[17] = test system: CCRF-CEM
[18] = test system: UO-31
[19] = test system: Hs-578T

Structure (SMILES) | GI50 [1] | GI50 [2] | GI50 [3] | GI50 [4] | GI50 [5] | GI50 [6] | GI50 [7] | GI50 [8] | GI50 [9] | GI50 [10] | GI50 [11] | GI50 [12] | GI50 [13] | GI50 [14] | GI50 [15] | GI50 [16] | GI50 [17] | GI50 [18] | GI50 [19]
CC(=O)CC1(OC(=O)C2C(C=C(C)C)C2(C)C)C(=O)Nc2ccccc21 (centres undefined) | > 100 µM (inactive) | 96.6 µM (inactive) | > 100 µM (inactive) | > 100 µM (inactive) | 77.3 µM (inactive) | 37.6 µM (inactive) | > 100 µM (inactive) | > 100 µM (inactive) | > 100 µM (inactive) | > 100 µM (inactive) | 78.3 µM (inactive) | > 100 µM (inactive) | > 100 µM (inactive) | > 100 µM (inactive) | > 100 µM (inactive) | 51.3 µM (inactive) | 55.3 µM (inactive) | > 100 µM (inactive) | > 100 µM (inactive)
CC(=O)OCC1OC(OC2CC3C(C)(C)C(OC(C)=O)CC[C@]3(C)C3CCC45CC4(CC[C@H]5C(C)CC(O)C4OC4(C)C)[C@]23C)C(O)C(O)C1O (some centres undefined) | 1.98 µM (inactive) | 1.95 µM (inactive) | 1.55 µM (inactive) | 7.98 µM (inactive) | 1.13 µM (inactive) |  | 1.69 µM (inactive) | 1.01 µM (active) | 2.3 µM (inactive) | 2.65 µM (inactive) | 2.21 µM (inactive) | 1.34 µM (inactive) | 2.69 µM (inactive) | 1.63 µM (inactive) | 3.35 µM (inactive) | 2.27 µM (inactive) | 1.04 µM (active) | 3.68 µM (inactive) | 
C[N+](C)(CCNc1ccc(NCC[N+](C)(C)Cc2ccc([N+](=O)[O-])cc2)c2c1C(=O)c1c(O)ccc(O)c1C2=O)Cc1ccc([N+](=O)[O-])cc1 | > 50 µM (inactive) | > 50 µM (inactive) | > 50 µM (inactive) | 30 µM (inactive) | > 5 µM (inactive) | 37.8 µM (inactive) | 16.7 µM (inactive) | 18.7 µM (inactive) | > 50 µM (inactive) |  | > 50 µM (inactive) | 9.53 µM (inactive) | 15 µM (inactive) | 4.65 µM (inactive) | > 50 µM (inactive) | > 50 µM (inactive) | > 50 µM (inactive) | 20.4 µM (inactive) | > 50 µM (inactive)
